Experiments:
[1] = target: T1, cloned human 5-HT2 receptor (Homo sapiens, UniProt P28223); test: Competition for 3H-Ketanserin binding, cloned human 5-HT2 receptor in stably transfected Ltk- cell membranes; details: cloned human 5-HT2 receptor expressed in Ltk- cells; 3H-Ketanserin radioligand
T1 construct: Clone 6B contained the entire coding region for a 5-HT2 receptor; expressed in transfected cells
Method: (§1) The total reaction volume was 0.25 ml.
(§2) Subsequent to analysis in transiently transfected cells, the 5-HT2 clone was expressed as a stable transfectant in mouse Ltk^− cells. Further characterization was done on these cells as described above.
Data were analyzed by computer-assisted analysis (Accufit Competition; Lundon Software; Chagrin Falls, Ohio).
(§3) Full saturation analysis was performed on stable cell lines expressing the gene. […] The binding constants were evaluated by computer-assisted nonlinear regression using Accufit (Lundon Software, Chagrin Falls, Ohio). […] Further characterization was accomplished by performing competition experiments for a series of drugs. Analysis of the competition data was accomplished using the computer-assisted nonlinear regression program Accucomp.

[2] = target: T2, 5-HT2 receptor in human cortical membranes (Homo sapiens, UniProt P28223); details: human cortex; footnote 1 Lyon et al. 1987, footnote 2 Hoyer et al. 1986; cited from earlier work
T2 construct: the 5-HT2 receptor in human cortical membranes; host or cells: human cortical membranes

[3] = target: T3, 5-HT2 receptor in rat cortical membranes (Rattus norvegicus, UniProt P14842); details: rat cortex; Hoyer et al. 1986; cited from earlier work
T3 construct: rather than in rat cortical membranes; host or cells: rat cortical membranes

[4] = target: T4, human 5-HT2 receptor (Homo sapiens, UniProt P28223); test: Saturation analysis of 3H-Ketanserin binding to stably transfected Ltk- cells; design: Clone 6B contained the entire coding region for a 5-HT2 receptor; expressed in transfected cells
Method: as §1, §2, §3

[5] = target: T4, human 5-HT2 receptor; test: Radioligand binding to transiently transfected Cos-7 cell membranes; details: transiently transfected Cos-7 cells

T4 sequence (P28223 whole entry): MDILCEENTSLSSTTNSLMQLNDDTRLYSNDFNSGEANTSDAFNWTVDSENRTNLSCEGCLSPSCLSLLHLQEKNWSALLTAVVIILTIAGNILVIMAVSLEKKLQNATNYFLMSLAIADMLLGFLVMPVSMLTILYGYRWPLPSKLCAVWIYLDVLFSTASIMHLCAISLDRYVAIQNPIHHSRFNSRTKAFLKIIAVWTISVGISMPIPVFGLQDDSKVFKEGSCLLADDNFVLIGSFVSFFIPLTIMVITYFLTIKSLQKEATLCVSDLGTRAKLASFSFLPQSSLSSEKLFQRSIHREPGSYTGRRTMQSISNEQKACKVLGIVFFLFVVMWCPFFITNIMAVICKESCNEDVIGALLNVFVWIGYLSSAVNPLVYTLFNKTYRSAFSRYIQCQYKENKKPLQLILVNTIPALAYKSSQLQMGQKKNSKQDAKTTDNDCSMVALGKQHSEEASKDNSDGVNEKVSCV
T1 sequence (P28223 whole entry): as above
T2 sequence (P28223 whole entry): as above
T3 sequence (P14842 whole entry): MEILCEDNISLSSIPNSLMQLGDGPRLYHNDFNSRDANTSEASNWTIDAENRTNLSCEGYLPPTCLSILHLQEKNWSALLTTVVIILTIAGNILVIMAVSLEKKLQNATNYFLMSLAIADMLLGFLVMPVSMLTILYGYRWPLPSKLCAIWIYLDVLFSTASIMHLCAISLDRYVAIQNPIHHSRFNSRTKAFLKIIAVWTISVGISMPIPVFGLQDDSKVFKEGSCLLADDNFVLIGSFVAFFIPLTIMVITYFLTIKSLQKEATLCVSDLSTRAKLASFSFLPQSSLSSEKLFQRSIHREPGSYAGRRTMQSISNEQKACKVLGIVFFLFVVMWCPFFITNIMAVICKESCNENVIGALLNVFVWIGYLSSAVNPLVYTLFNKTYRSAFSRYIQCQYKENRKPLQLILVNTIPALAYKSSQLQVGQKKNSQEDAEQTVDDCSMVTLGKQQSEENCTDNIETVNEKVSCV

Row | SMILES | Ki [1] [nM] | Ki [2] [nM] | Ki [3] [nM] | Bmax ([4]; FIG. 4 experiment, stably transfected Ltk- cells) [pmole/mg protein] | Bmax ([4]; Ltk- cells transfected with pMO5-6B) [pm/mg protein] | binding affinity in words [5] | estimated site density [5]
1 | NCCc1c[nH]c2ccc(C(N)=O)cc12 [5-CT] | 3030 | 813 | 20000 |  |  |  | 
2 | CN1C[C@@H](NS(=O)(=O)N(C)C)C[C@@H]2c3cccc4c3c(cn4C)C[C@H]21 [MESULERGINE] | 146 ± 5 | 158 |  |  |  |  | 
3 | [3H]C([3H])(N1CCC(C(=O)c2ccc(F)cc2)CC1)C([3H])([3H])n1c(=O)[nH]c2ccccc2c1=O [^3H-Ketanserin] |  |  |  | 0.602 | 0.602±0.07 | high affinity | 0.95-1.6 pm/mg protein

Source: patent publication US6383762B1, “Methods of obtaining compounds that interact with a human serotonin (5-HT2) receptor” (Synaptic Pharmaceutical Corporation, priority 1989, dated 2002)
